From ChEMBL document CHEMBL4819046, “One pot synthesis, in silico study and evaluation of some novel flavonoids as potent topoisomerase II inhibitors” (Bioorg Med Chem Lett, 2021)
pIC50: −log10 of the molar value. Calls of active or inactive are those of the source. The calls are words filed in the database; no cut-off is given here.

Experiments:
[1] = tested on: MCF7; assay: Cytotoxicity against human MCF7 cells assessed as inhibition of cell proliferation after 72 hrs by MTT assay; type: functional, cell-based; settings: MCF7, 72 h
[2] = tested on: A549; assay: Cytotoxicity against human A549 cells assessed as inhibition of cell proliferation after 72 hrs by MTT assay; type: functional, cell-based; settings: A549, 72 h
[3] = tested on: MCF-10A; assay: Cytotoxicity against human MCF-10A cells at <= 25 uM after 72 hrs by MTT assay; type: cell-based
[4] = tested on: HepG2; assay: Cytotoxicity against human HepG2 cells assessed as inhibition of cell proliferation after 72 hrs by MTT assay; type: functional, cell-based; settings: HepG2, 72 h
[5] = tested on: MCF-10A; assay: Cytotoxicity against human MCF-10A cells at 100 uM after 72 hrs by MTT assay; type: cell-based
[6] = biological target: T1, DNA topoisomerase 2-alpha (Homo sapiens, UniProt P11388); assay: Inhibition of human topoisomerase-2 alpha in human A498 cells assessed as decrease in relaxation of supercoiled DNA at 10 uM; type: cell-based
[7] = tested on: MCF-10A; assay: Cytotoxicity against human MCF-10A cells assessed as reduction in cell viability after 72 hrs by MTT assay; type: cell-based
[8] = tested on: MCF-10A; assay: Cytotoxicity against human MCF-10A cells at 50 uM after 72 hrs by MTT assay; type: cell-based
[9] = biological target: T1, DNA topoisomerase 2-alpha; assay: Inhibition of human topoisomerase-2alpha assessed as reduction in pBR322 DNA relaxation by gel electrophoresis method

T1 sequence (P11388 whole entry): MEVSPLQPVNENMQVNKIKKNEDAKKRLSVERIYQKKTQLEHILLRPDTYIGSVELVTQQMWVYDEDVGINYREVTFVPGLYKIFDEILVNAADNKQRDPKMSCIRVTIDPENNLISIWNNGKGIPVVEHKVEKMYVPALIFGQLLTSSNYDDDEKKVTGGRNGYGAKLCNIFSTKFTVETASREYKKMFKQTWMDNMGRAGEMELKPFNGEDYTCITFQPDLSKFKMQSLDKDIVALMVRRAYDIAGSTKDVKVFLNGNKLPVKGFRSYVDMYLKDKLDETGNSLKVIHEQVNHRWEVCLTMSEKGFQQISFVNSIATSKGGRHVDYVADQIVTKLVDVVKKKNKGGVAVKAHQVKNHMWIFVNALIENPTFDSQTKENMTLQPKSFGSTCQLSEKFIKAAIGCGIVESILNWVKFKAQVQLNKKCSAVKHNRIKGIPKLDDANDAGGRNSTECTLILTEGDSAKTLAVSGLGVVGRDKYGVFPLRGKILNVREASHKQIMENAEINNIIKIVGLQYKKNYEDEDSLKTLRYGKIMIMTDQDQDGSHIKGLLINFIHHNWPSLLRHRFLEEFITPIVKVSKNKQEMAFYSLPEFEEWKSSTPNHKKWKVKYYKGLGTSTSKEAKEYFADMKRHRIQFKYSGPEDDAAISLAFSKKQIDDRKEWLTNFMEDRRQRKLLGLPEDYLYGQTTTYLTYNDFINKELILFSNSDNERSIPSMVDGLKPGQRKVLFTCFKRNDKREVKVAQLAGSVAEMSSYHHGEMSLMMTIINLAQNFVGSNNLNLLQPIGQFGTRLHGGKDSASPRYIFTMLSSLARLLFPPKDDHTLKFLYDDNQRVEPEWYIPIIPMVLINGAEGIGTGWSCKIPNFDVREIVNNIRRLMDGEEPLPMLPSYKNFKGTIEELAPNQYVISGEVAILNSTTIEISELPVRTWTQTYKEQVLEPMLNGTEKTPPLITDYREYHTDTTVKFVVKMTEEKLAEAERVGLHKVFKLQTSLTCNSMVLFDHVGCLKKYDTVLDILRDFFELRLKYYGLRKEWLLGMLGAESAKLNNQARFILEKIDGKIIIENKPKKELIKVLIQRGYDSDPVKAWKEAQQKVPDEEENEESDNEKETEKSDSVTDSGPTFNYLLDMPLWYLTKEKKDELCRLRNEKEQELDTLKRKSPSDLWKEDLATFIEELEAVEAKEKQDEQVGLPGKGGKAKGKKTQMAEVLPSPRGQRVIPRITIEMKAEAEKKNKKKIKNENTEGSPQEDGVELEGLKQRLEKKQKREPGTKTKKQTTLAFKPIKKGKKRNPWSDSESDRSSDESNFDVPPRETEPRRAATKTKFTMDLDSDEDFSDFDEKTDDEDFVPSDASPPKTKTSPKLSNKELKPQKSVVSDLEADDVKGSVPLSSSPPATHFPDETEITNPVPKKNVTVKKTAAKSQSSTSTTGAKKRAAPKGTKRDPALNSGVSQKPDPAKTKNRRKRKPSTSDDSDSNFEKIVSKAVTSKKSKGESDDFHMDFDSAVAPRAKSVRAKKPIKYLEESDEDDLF

| SMILES | pIC50 [1] | pIC50 [2] | Activity [3] | pIC50 [4] | Activity [5] | pIC50 [6] | pIC50 [7] | Activity [8] | inhibition [9] |
| --- | --- | --- | --- | --- | --- | --- | --- | --- | --- |
| N#CC1=C(N)Oc2c(c(=O)oc3ccccc23)C1c1c2ccccc2cc2ccccc12 (configuration not stated) | 4.90 | 4.60 | Non-Toxic | 4.60 | Toxic |  |  |  |  |
| Cc1cc2occ(-c3nc(-c4ccccc4)c(-c4ccccc4)n3-c3ccc([N+](=O)[O-])cc3)c(=O)c2cc1Cl | 5.20 | 5.51 | Non-Toxic | 4.60 | Toxic | 4.32 | < 4.00 |  |  |
| Cc1ccc(-n2c(-c3coc4cc(C)c(Cl)cc4c3=O)nc(-c3ccccc3)c2-c2ccccc2)cc1 | 4.90 | 4.90 | Non-Toxic | 5.20 | Toxic |  |  |  |  |
| Cc1cc2occ(-c3nc(-c4ccccc4)c(-c4ccccc4)n3-c3cccc(Cl)c3)c(=O)c2cc1Cl | 5.20 | 4.60 | Non-Toxic | 4.60 | Toxic |  |  |  |  |
| Cc1cc2occ(-c3nc(-c4ccccc4)c(-c4ccccc4)n3-c3cccc([N+](=O)[O-])c3)c(=O)c2cc1Cl | 5.81 | 5.20 | Non-Toxic | 4.60 |  |  |  | Toxic |  |
| N#CC1=C(N)Oc2c(c(=O)oc3ccccc23)C1c1c[nH]c2ccccc12 (configuration not stated) | 5.81 | 5.81 | Non-Toxic | 4.90 |  | 4.91 | 4.03 | Toxic | Active |
| Cc1cc2occ(C3C(C#N)=C(N)Oc4c3c(=O)oc3ccccc43)c(=O)c2cc1Cl (configuration not stated) | 5.20 | 5.20 | Non-Toxic | 4.90 | Toxic |  |  |  |  |
| N#CC1=C(N)Oc2c(c(=O)oc3ccccc23)C1c1cc(=O)c2ccccc2o1 (configuration not stated) | 4.90 | 5.81 | Non-Toxic | 5.20 |  | 4.58 | 4.05 | Toxic |  |
| N#CC1=C(N)Oc2c(c(=O)oc3ccccc23)C1c1cc2ccccc2c2ccccc12 (configuration not stated) | 4.60 | 4.60 | Non-Toxic | 4.60 | Toxic |  |  |  |  |
| N#CC1=C(N)Oc2c(c(=O)oc3ccccc23)C1C1CC1 (configuration not stated) | 4.60 | 4.60 | Non-Toxic | 4.90 | Toxic |  |  |  |  |
| Cc1cc2occ(-c3nc(-c4ccccc4)c(-c4ccccc4)n3-c3ccc(Cl)cc3)c(=O)c2cc1Cl | 4.90 | 4.90 | Non-Toxic | 5.81 |  |  | 4.04 | Toxic |  |
| Cc1cc2occ(-c3nc(-c4ccccc4)c(-c4ccccc4)n3-c3ccc(Br)cc3)c(=O)c2cc1Cl | 5.81 | 4.60 | Non-Toxic | 5.20 |  | 4.77 | < 4.00 | Toxic |  |
| N#CC1=C(N)Oc2c(c(=O)oc3ccccc23)C1c1cc2ccccc2s1 (configuration not stated) | 5.81 | 5.81 | Non-Toxic | 5.20 |  | 4.99 | 4.01 | Toxic | Active |
| Cc1ccc(-n2c(-c3coc4cc(C)c(Cl)cc4c3=O)nc(-c3ccccc3)c2-c2ccccc2)c(C)c1 | 5.20 | 5.20 | Non-Toxic | 5.51 | Toxic |  |  |  |  |
| N#CC1=C(N)Oc2c(c(=O)oc3ccccc23)C1c1cnc2ccccc2c1 (configuration not stated) | 5.81 | 5.20 | Non-Toxic | 5.20 |  | 4.78 | 4.03 | Toxic |  |
| Cc1cc2occ(-c3nc(-c4ccccc4)c(-c4ccccc4)n3-c3ccccc3Cl)c(=O)c2cc1Cl | 5.51 | 4.90 | Non-Toxic | 5.20 | Toxic |  |  |  |  |
| COc1ccccc1-n1c(-c2coc3cc(C)c(Cl)cc3c2=O)nc(-c2ccccc2)c1-c1ccccc1 | 4.60 | 4.90 | Non-Toxic | 4.90 | Toxic |  |  |  |  |
| Cc1cc2occ(-c3nc(-c4ccccc4)c(-c4ccccc4)n3-c3ccc(Cl)c(Cl)c3)c(=O)c2cc1Cl | 5.81 | 5.20 | Non-Toxic | 4.90 |  | 4.40 | 4.01 | Toxic |  |
| COc1ccc(C2C(C#N)=C(N)Oc3c2c(=O)oc2ccccc32)c(OC)c1 (configuration not stated) | 4.60 | 5.20 | Non-Toxic | 5.51 | Toxic |  |  |  |  |
| COc1cccc(-n2c(-c3coc4cc(C)c(Cl)cc4c3=O)nc(-c3ccccc3)c2-c2ccccc2)c1 | 4.60 | 5.20 | Non-Toxic | 5.20 | Toxic |  |  |  |  |
| Cc1cccc(-n2c(-c3coc4cc(C)c(Cl)cc4c3=O)nc(-c3ccccc3)c2-c2ccccc2)c1 | 4.90 | 4.90 | Non-Toxic | 5.20 | Toxic |  |  |  |  |
